Assays:
[1] = system: matrix metalloprotease-1; assay: Matrix metalloprotease-1 production of NHDF after IL-1β, ELISA (Experiments 5 and 9); type: cell-based, human; conditions: 200 μM, single use; reduction against control
Description: Normal human dermal fibroblasts (NHDF), which had been suspended in a Dulbecco's Modified Eagle Medium supplemented with 10% fetal calf serum to give a concentration of 2.5×10^5 cells/mL, were placed in 96-well microplates by 0.1 mL/well and cultured until reaching a confluent state over the bottom of each well. Thereafter, the medium in each well was replaced with a fresh serum-free culture medium and culture for another 24 hours, added with any one of the test substances in Table 6 at each concentration shown in the table, and cultured for additional 24 hours. Then, the resulting cell cultures were added with human IL-1β to give a final concentration of 1 ng/ml, followed by culturing the cells for another 24 hours. After completion of the culture, matrix metalloprotease-1 in the supernatant in each well was detected with an enzyme-linked immuno sorbent assay (ELISA), commercialized by R & D Systems, Inc., MN, USA, developed coloration with tetramethylbenzidine, and measured for absorption at a wavelength of 450 nm. A control system was provided similarly as above except for not adding any test substance, and determined for the activity of matrix metalloprotease-1 similarly as in the above to be regarded as 100%. The production level of matrix metalloprotease-1 for each test substance was comparatively evaluated based on the following equation. Equation: Production level of matrix metalloprotease-1 (relative value (%))=[(Absorbance of a sample with any one of test substances)/(Absorbance of control)]×100
The experiment was repeated three times, and the data were compared to that of control with the Dunnett's multiple comparisons test. The symbol “*” means a level of significance of p<0.01.
Except for adding the test substances listed in Table 12 at respective concentrations shown in the table, experiments were respectively conducted in accordance with the methods in Experiment 5 disclosed in the specification to examine the effect of the combination use with ascorbic acid 2-glucoside used as a skin whitener in cosmetics on the action of anti-wrinkles by analogues of adenosine N1-oxide 5′-phosphate. A control system was provided and similarly treated as above except for not adding any test substance. The reduction rate of the production level of matrix metalloprotease-1 against that of control based on the following equation. Equation: Reduction rate of the production level of matrix metalloprotease−1(%)=100−[(Absorbance of a sample with any one of test substances)/(Absorbance of control)]×100

[2] = system: filaggrin protein; assay: Expression of filaggrin protein, Western blot filaggrin/actin (Experiment 3); type: cell-based, human; conditions: 0.5 mM (positive control); control = 100%
Description: Then, the expression of filaggrin was induced in such a manner of further culturing the cells for another four days, while replacing the culture medium with an EpiLife medium supplemented with 2 μM, 5 μM, or 10 μM of sodium adenosine N1-oxide 5′-phosphate every three days. […] After four days culture, the resultant cells were washed with Dulbecco's phosphate buffered saline, added with 0.1 mL of an SDS sample buffer (pH 6.8) containing 62.5 mM Tris-HCl, 2% SDS, 10% glycerol, and 50 mM DTT along with a protease inhibitor, and collected with a cell scraper. The collected cells were boiled for 10 min, disrupted ultrasonically, and quantified with “Pierce BCA Protein Assay Kit”, commercialized by ThermoFisher Scientific K. K., Yokohama, Japan. A prescribed amount of the resulting disrupted cells was sampled and subjected to SDS-polyacrylamide gel electrophoresis in an amount of 100 μg/lane, and the resulting gel was transferred to a PVDF membrane. The resulting transferred PVDF membrane was blocked with “Block Ace”, commercialized by DS Pharma Biomedical Co., Ltd., Osaka, Japan, reacted with a 200-fold dilution of “AKH1”, a mouse anti-filaggrin antibody, commercialized by, Santa Cruz Biotechnology Inc., CA, USA, or a 20,000-fold dilution of “MAB1501”, a mouse actin antibody, commercialized by Chemicon International Inc., MA, USA, as a first antibody, and then reacted with a 2,000-fold dilution of “P0447”, an HRP-labeled anti-mouse immunoglobulin, commercialized by Dako Japan, Tokyo, Japan, as a secondary antibody. After the reaction, by using ECL Plus Western Blotting Detection System, commercialized by GE Healthcare Japan, Tokyo, Japan, bands were detected on “Hyperfilm ECL”, a chemiluminescent film commercialized by GE Healthcare Japan, Tokyo, Japan. The detected bands were analyzed and quantified with “Image J”, an image analyzing software. A control system with no addition of any of the test substances was provided and the increasing intensity ratio of a band of filaggrin/actin was regarded as 100%, with which data for the increased percentages of the intensity ratios of bands of filaggrin/actin of the test substances were comparatively evaluated.

[3] = system: transglutaminase; assay: Transglutaminase activity, fluorescein cadaverine uptake (Experiments 1-3 and 7); type: cell-based, human; conditions: single use, increase over control
Description: Normal human epidermal keratinocytes were cultured similarly as in Experiment 1-1, except for adding the test substances as listed in Table 3 to respective culture systems. The cultured normal human epidermal keratinocytes were added with 100 μM of fluorescein cadaverine and allowed to stand for four hours. Thereafter, the resulting cells were washed once with phosphate buffered saline and further treated with cold methanol for 10 min for cell fixation. The fixed cells were washed thrice with cold methanol, followed by the addition of phosphate buffered saline. Fluorescein cadaverine taken in the cells via transglutaminase was analyzed with Cell Imaging Station, commercialized by Molecular Probes Life Technology, France, and the analyzed fluorescent intensities were regarded as transglutaminase activities. There was provided a control system similarly as in the above, except for not adding any of the test substances. The transglutaminase activity of each test substance was evaluated as a relative value determined with the following equation using the fluorescent intensity of the control system being regarded as 100%. Equation: Transglutaminase activity (relative value (%))=[(Fluorescent intensity of a sample with any one of test substances)/(Fluorescent intensity of control)]×100
(§1) The experiment was repeated three times, and the data was subjected to the Dunnett's multiple comparisons with Control. The symbol “*” means a level of significance of p<0.01.
(§2) Except for adding the test substances listed in Tables 8 and 9 at respective concentrations shown in the tables, experiments were respectively conducted in accordance with the methods in Experiments 1-2 and 1-3 disclosed in the specification to examine the effect of the combination use of epigallocatechin gallate, which is used as an antioxidant for cosmetics, and sodium adenosine N1-oxide 5′-phosphate on the action of accelerating the cornified-envelope production and the action of enhancing the transglutaminase activity of sodium adenosine N1-oxide 5′-phosphate. A control system was provided and similarly treated as above except for not adding any test substance and was determined for both the increase rates of cornified-envelope production level and the transglutaminase activity, based on the following equations. Equation: Increase rate of cornified envelope production level (%)={[(Absorbance of a sample with any one of test substances)/(Absorbance of control)]×100}−100 Equation: Increase rate of transglutaminase (%)={[(Absorbance of a sample with any one of test substances)/(Absorbance of control)]×100}−100

[4] = system: normal human epidermal keratinocytes; assay: Production level of cornified envelope, absorbance 310 nm (Experiments 1-2 and 7); type: cell-based; conditions: single use, increase over control
Description: Normal human epidermal keratinocytes were cultured similarly as in Experiment 1-1, except for adding the test substances listed in Table 2 at prescribed concentrations to the cells. The resulting cultured cells were washed once with phosphate buffered saline (PBS), followed by scrapping off the cells adhered to each culture plate by adding 0.5 mL of PBS to each well of the plates. The cell suspensions thus obtained were added with 10% sodium lauryl sulfate solution in a volume of ¼ of each of the suspension volumes, followed by stirring and freezing the resulting mixtures at −80° C. After thawing, the resulting mixtures were centrifuged at 12,000×g for 15 min, followed by collecting the cell precipitates which were then washed once with phosphate buffered saline containing 2% sodium lauryl sulfate. The resulting mixtures were centrifuged at 12,000×g for 15 min, followed by collecting the cells and suspending the collected cells with phosphate buffered saline containing 2% sodium lauryl sulfate and 20 mM dithiothreitol. The resulting cell suspensions were boiled in a boiling water bath for one hour and measured for absorbance at a wavelength of 310 nm to determine the production level of cornified envelope for each test system added with any of the test substances. A control system was provided similarly as above except for not adding any one of the test substances to the system, and determined for absorbance at a wavelength of 310 nm similarly as in the above to be regarded as 100%. The production level of cornified envelope for each test substance was relatively evaluated based on the following equation. Equation: Production level of cornified envelope (Relative value (%))=[(Absorbance of a sample with any one of test substances)/(Absorbance of Control)]×100
as §1, §2

[5] = system: human epidermoid carcinoma cell line A-431; assay: Tight-junction function, lucifer yellow transmittance (Experiments 2 and 8); type: cell-based; conditions: 3 mM, single use; reduction against control
Excerpt: A human epidermoid carcinoma cell line A-431 was suspended in a media, supplemented with any of the test substances disclosed in Table 4 and having respective concentrations as indicated in the table, to give a cell concentration of 1×10^5 cells/mL, and each cell suspension was placed in an insert cup for a 12-well culture plate by two milliliters per well, followed by culturing the cells until reaching a confluent state through over the bottom surface of each well. The inner and the outer cup volumes were adjusted to give two milliliters while checking both the liquid levels of the cups were constant, and lucifer yellow as a model for permeating substance, commercialized by Life Technologies Corporation, CA, USA, was added to each inner cup to give a final concentration of 100 μM. Thereafter, the fluorescent intensities of lucifer yellow in the culture media in both the inner and the outer cups were measured, followed by calculating the percentage of the fluorescent intensity of the outer cup against that of the sum of the outer and the inner cups for use as a transmittance of lucifer yellow with the following equation. Equation: Transmittance of lucifer yellow (%)={(Absorbance of a liquid outside of an insert cup)/[(Absorbance of a liquid inside of the insert cup)+(Absorbance of the liquid outside of the insert cup)]}×100
There was provided a control system prepared similarly as above except for not adding any of the test substances, and the transmittance of lucifer yellow was regarded as 100% for evaluating the reduction of transmittance due to the reinforcement of the function of tight junction, based on the following equation. Equation: Relative transmittance (Relative percentage (%)) of lucifer yellow=[(Transmittance of a sample with any one of test substances)/(Transmittance of control)]×100
The experiment was repeated three times, and the data was subjected to the Dunnett's multiple comparisons with control. The symbol “*” means a level of significance of p<0.01.
Except for adding the test substances listed in Table 11 at respective concentrations shown in the table, experiments were respectively conducted in accordance with the methods in Experiment 2 disclosed in the specification to examine the effect of the combination use with ethylenediaminetetraacetate used as a preservative for cosmetics on the action of reinforcing the function of tight junction by sodium adenosine N1-oxide 5′-phosphate. A control system was provided and similarly treated as above except for not adding any test substance. The reduction rate of relative transmittance of lucifer yellow against that of control based on the following equation. Equation: Reduction rate of relative transmittance of lucifer yellow (%)=100−[(Transmittance of a sample with any one of test substances)/(Transmittance of control)]×100

SMILES: O=C1O[C@H]([C@@H](O)CO)C(O)=C1O[C@H]1O[C@H](CO)[C@@H](O)[C@H](O)[C@H]1O [Ascorbic acid 2-glucoside, reference compound]
- Reduction rate of the production level of matrix metalloprotease-1 activity (%) [1]: 2.1%

SMILES: [Ca+2].[Cl-].[Cl-] [CaCl2, calcium chloride, reference compound]
- Relative expression level of filaggrin protein (%) [2]: 289%

SMILES: O=C(O[C@@H]1Cc2c(O)cc(O)cc2O[C@@H]1c1cc(O)c(O)c(O)c1)c1cc(O)c(O)c(O)c1 [Epigallocatechin gallate, reference compound]
- Increase rate of transglutaminase activity (%) ([3]; 1.6 μM): 5.6%
- Increase rate of transglutaminase activity (%) ([3]; 3.3 μM): 19.0%
- Increase rate of transglutaminase activity (%) ([3]; 6.5 μM): 6.5%
- Increase rate of cornified envelope formation level (%) ([4]; 1.6 μM): 28.0%
- Increase rate of cornified envelope formation level (%) ([4]; 3.3 μM): 37.3%

SMILES: O=C(O)CN(CCN(CC(=O)O)CC(=O)O)CC(=O)O [Ethylenediaminetetraacetate, reference compound]
- Reduction rate of relative transmittance of lucifer yellow (%) [5]: −24.7%
